How the values were obtained:
[1] = Liver and kidney function (blood ALT, AST, BUN, creatinine) in imiquimod-induced mice; format: in vivo, BALB/c mice; conditions: HKI-4971 20 mg/kg intraperitoneal, alone or in combination with IMQ; n=3
Description: (§1) Male BALB/c mice aged 7-8 weeks were used for the development of the imiquimod-induced psoriatic-like plaque model. The dorsal skin of the mice were shaved and received a daily topical dose of 62.5 mg of 5% imiquimod (IMQ) cream (Aldara, MEDA Pharma, Sweden) with or without a test compound (e.g., HKI-4971) treatment by intraperitoneal injection for 7 consecutive days.
In this example, the effect of HKI-4971 (or compound 13) on the development of psoriasis was investigated using the well-established psoriasis animal model, in which imiquimod (IMQ) was used to induce psoriasis-like skin inflammation. Briefly, BALB/c mice are pre-treated by intraperitoneal injection of HKI-4971 (20 mg/kg) for 30 min before 5% IMQ cream was topically administered onto the back of the mice every day for 7 days. Then, skin samples taken from these animals were subjected to microscopy examination and immunohistochemistry staining, while blood samples were subjected to analysis for liver and kidney functions. Results are depicted in FIGs 1 to 3.
Blood samples taken from IMQ- or IMQ+HKI-4971 treated animals were analyzed for the levels of alanine aminotransferase and aspartate transaminase, which were used as indicators for assessing liver function; and the levels of blood […] nitrogen (BUN) and creatinine (CRE), which were used as indicators for assessing the kidney function. […]

human neutrophils [2] = experiment: Superoxide anion (O2˙-) generation in fMLF/CB-activated human neutrophils (SOD-inhibitable ferricytochrome c reduction); format: cell-based; conditions: Neutrophil
Description: (§2) Human neutrophils were obtained in lipopolysaccharide-free conditions by means of dextran sedimentation and Ficoll centrifugation.
O2˙^- production was determined based on the SOD-inhibitable reduction of ferricytochrome c. Briefly, neutrophils (6 × 10^5/mL) were treated with a candidate compound at 37 °C at various concentrations (0.001 to 10 µM) for 5 min after being supplementing with 0.5 mg/mL ferricytochrome c and 1 mM Ca^2+. Cells were then activated with fMLF (0.1 µM) for 10 min in the pre-process of cytochalasin B (CB, 1 µg/mL) for 3 min. Changes in absorbance with the reduction of ferricytochrome c at 550 nm were continuously monitored in a double-beam, six-cell positioner spectrophotometer with constant stirring (Hitachi U-3010, Tokyo, Japan). Calculations were based on the differences in the reactions with and without SOD (100 U ml^-1) divided by the extinction coefficient for the reduction of ferricytochrome c (ε = 21.1 mM^-1/10 mm).

human neutrophils [3] = experiment: Elastase release in fMLF/CB-activated human neutrophils (Methoxysuccinyl-Ala-Ala-Pro-Val-p-nitroanilide substrate); format: cell-based; conditions: Neutrophil
Description: as §2
Methoxysuccinyl-Ala-Ala-Pro-Val-p-nitroanilide was employed as the elastase substrate for the determination of elastase release. Briefly, after supplementation with Methoxysuccinyl-Ala-Ala-Pro-Val-p-nitroanilide (100 µM), neutrophils (6 × 10^5/mL) were equilibrated at 37 °C for 2 min and incubated with a candidate compound at various concentrations for 5 min. Cells were then activated with fMLF (0.1 µM) for 10 min in the pre-process of CB (0.5 µg/mL) for 3 min, and changes in absorbance at 405 nm were continuously monitored to evaluate elastase release. Results are expressed as the percentage of elastase release in the drug-free control group, DMSO.

LPS-induced ALI = experiment: LPS-induced acute lung injury (ALI) in mice (lung MPO activity, H&E, immunohistochemistry); format: in vivo, BALB/c mice; conditions: 20 mg/Kg intravenous 1 hr before intratracheal LPS (2 mg/Kg), 5 hrs
Description: (§3) Male BALB/c mice aged 7-8 weeks were purchased from BioLASCO (Taipei, Taiwan) and maintained in a room with 12 hr light/dark cycles. Standard laboratory chow and water were available ad libitum. All animal experimental procedures were performed in accordance with guidelines and approved by the Institutional Animal Care and Use Committee of Chang Gung University.
Mice were pre-treated with a candidate compound (e.g., HKI-4971), which was dissolved in 50 µl saline solution containing 10% DMSO and 20% Kolliphor EL (Sigma-Aldrich, USA), by intravenous injection. […]
Lung tissues were homogenized in PBS (50 Mm, pH 6.0) containing 0.5% (w/v) hexadecyltrimethylammonium bromide (HETAB) (Sigma-Aldrich, USA) by using the MagNA Lyser Instrument (Roche, Germany), and was further centrifuged at 12,000 ×g for 20 min at 4°C to remove the insoluble material. The peroxidase activity was measured as the oxidation of o-Dianisidine dihydrochloride (Sigma-Aldrich, USA). […] The absorption was determined spectrophotometrically at 405 nm. […]
In this example, the Gram-negative bacterial endotoxin LPS induced ALI in mice was employed to mimic ARDS in human, and the effect of HKI-4971 was evaluated. […]

[4] = tested on: imiquimod-induced psoriasis; experiment: Imiquimod-induced psoriasis-like skin inflammation in mice (phenotype, H&E, immunohistochemistry); format: in vivo, BALB/c mice; conditions: 20 mg/kg intraperitoneal, 30 min before 5% IMQ cream, every day for 7 days
Description: as §3, §1
Tissue samples were fixed in 10% neutral buffered formalin and embedding in paraffin blocks. Sections of the samples were prepared at 5 µm thickness and stained with hematoxylin and eosin (H&E). For immunohistochemistry staining, the sections were incubated with primary antibodies against Ly6g, MPO, and ki67 then the secondary antibody was applied for the detection of the primary antibody according to the manufacturer's instructions of the SuperPicture Polymer Detection Kit (Thermo Fisher, USA). Finally, the section slides were subsequently stained with DAB chromogen and counterstained with hematoxylin. […]

[5] = at 10 µM concentration, FMLP/CB-induced human neutrophils, mean ± S.E.M. (n = 3-5)

IC50 (human neutrophils [2]; Homo sapiens, neutrophils in response to fMLF, Table 2, read-out: IC50 for suppressing the superoxide anion generation): ~3.7 nM | IC50 (human neutrophils [2]; FMLP/CB-induced human neutrophils, mean ± S.E.M. (n = 3-5), read-out: Superoxide Anion IC50): 3.69 ± 1.74 nM | IC50 (human neutrophils [3]; Homo sapiens, neutrophils in response to fMLF, Table 2, read-out: IC50 for suppressing elastase release): ~32 nM | IC50 (human neutrophils [3]; FMLP/CB-induced human neutrophils, mean ± S.E.M. (n = 3-5), read-out: Elastase Release IC50): 32.1 ± 17.4 nM
SMILES: Cn1nc(N)c2c(Nc3ccc(O)cc3)nc3ccccc3c21 [Compound 13, 4-(4-Hydroxyanilino)-1-methyl-1H-pyrazolo[4,3-c]quinolin-3-amine]
functions of liver or kidney (alanine aminotransferase, aspartate transaminase, BUN, CRE in blood) [1]: did not result in significant damage | inhibition at 10 µM (human neutrophils [2]; [5]): 88.1 ± 1.19% | inhibition at 10 µM (human neutrophils [3]; [5]): 105 ± 2.53% | LPS-induced neutrophil infiltration and lung injury (H&E and neutrophil markers in lung sections) (LPS-induced ALI): significantly alleviated | MPO activity in lung tissues (LPS-induced ALI; n=3): suppressed | markers for cell proliferation (ki-67) and for neutrophils (Ly6g and MPO), immunostaining of skin samples [4]: reduced | severity or progression of IMQ-induced psoriasis [4]: reduce the severity or progression

Reference: patent EP3876933B1, “NEUTROPHIL INFLAMMATION INHIBITOR AND USES THEREOF” (Chang Gung University of Science and Technology, priority 2018, dated 2020)
